This note sets out measurements from PubChem BioAssay (NCI).

Assay in all cases: DTP human tumour cell line panel, 48 h
Assay [1] relates to HS 578T breast.
Assay [2] relates to DU-145 prostate.
Assay [3] concerns NCI/ADR-RES ovarian.
In assay [4] the test system is MDA-MB-231 breast.

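Growth conditions: 96-well plates. Treatment: test compound, 48 hours, 5 concentrations. Analysis: linear interpolation between bracketing concentrations; unreached endpoints set to highest concentration. Abbreviation: GI50, concentration required for 50% inhibition of growth. TGI: total growth inhibition.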

The GI50 is the concentration at which growth is held to half of that of the control. As a reminder, the TGI is the concentration at which net growth stops. `CCCCCCCC/C=C/CCCCCCCC(=O)OC[C@H]1O[C@@H](n2ccc(N)nc2=O)C(F)(F)[C@@H]1O`: the GI50 in assay [1] was greater than 59.9 µM; in assay [2] it was less than 0.019 µM; in assay [3], less than 0.0217 µM; in assay [4] it was 7.98 µM. The TGI in assay [1] was greater than 100 µM; in assay [2], greater than 46.2 µM; in assay [3], greater than 100 µM; in assay [4] it was greater than 100 µM.

For `CCOC(=O)c1c(C)n(Cc2ccc(Cl)cc2Cl)c2c1c(CN(C)C)c(O)c1[nH]cnc12`, the GI50 was 29.1 µM in assay [1], 17.2 µM in assay [2] and 16.3 µM in assay [4]. The TGI in assay [1] is 81.8 µM; in assay [2], 30.9 µM; in assay [4], 31.9 µM.

Regarding `NCC1Nc2ccccc2[C@@H](O)C1O` (some centres not stated), the TGI in assay [1], in assay [2], in assay [3] and in assay [4] was greater than 100 µM throughout.

On to `Clc1nc(Cl)c(Cl)c(-c2ccccc2)n1`, for which the TGI in assay [1] and in assay [3] was greater than 100 µM in each case.

For the molecule `COc1ccc(-c2n[nH]nc2-c2cc(OC)c(OC)c(OC)c2)cc1`, in assay [1], the GI50 was less than 0.01 µM and the TGI is greater than 83.9 µM.

In the case of `Oc1cccnc1CN1CCCCC1`, the TGI in assay [1], in assay [2], in assay [3] and in assay [4] was greater than 100 µM each time.

Regarding `COc1ccc(Nc2c3ccccc3nc3occc23)cc1`, the GI50 is 6.23 µM in assay [1], 14.2 µM in assay [2], 0.921 µM in assay [3] and 3.66 µM in assay [4]. Besides, the TGI is greater than 67.6 µM in assay [1], greater than 100 µM in assay [2], greater than 36.8 µM in assay [3] and 22.7 µM in assay [4].

On to `Cc1cc(S(=O)(=O)Nc2nnc(-c3ccccc3)c(-c3ccccc3)n2)c(SCC(N)=O)cc1Cl`, for which the GI50 is 32.5 µM in assay [1], 55.7 µM in assay [2], greater than 100 µM in assay [3] and 36.3 µM in assay [4]. The TGI in assay [1], in assay [2], in assay [3] and in assay [4] was greater than 100 µM in each case.

Take `COc1cc(/C=C/c2cc(/C=C/c3ccc(O)c(OC)c3)n(C(=O)Nc3ccc(F)c(Cl)c3)n2)ccc1O`: the 50% growth inhibitory concentration (GI50) in assay [1] is 0.346 µM; in assay [2], 0.419 µM; in assay [3], 0.126 µM; in assay [4], 0.495 µM. Further, the TGI in assay [1] amounted to 2.74 µM; in assay [2], 1.55 µM; in assay [3], 3.09 µM; in assay [4], 3.85 µM.

For the molecule `NS(=O)(=O)c1ccc(NC2(C(=O)O)CCCC2)cc1`, the TGI in assay [1], in assay [2], in assay [3] and in assay [4] was greater than 100 µM each time.

Take `O=C1OC(C(O)CO)C(=O)C1=O` (configuration not stated): the GI50 in assay [1] is 3250 µM; in assay [2], 1720 µM; in assay [3], 7060 µM; in assay [4] it was 2720 µM. In addition, the TGI in assay [1] is 9940 µM; in assay [2], 3130 µM; in assay [3], greater than 10000 µM; in assay [4], greater than 10000 µM.

Regarding `Clc1ccc(C2=Nn3c(COc4ccccc4Cl)nnc3SC2)c(Cl)c1`, the GI50 in assay [1] is 15 µM; in assay [2] it was 19.8 µM; in assay [3] it was greater than 100 µM; in assay [4], 18.5 µM. Moreover, the TGI is 69 µM in assay [1], 86.1 µM in assay [2], greater than 100 µM in assay [3] and 48.6 µM in assay [4].

As for `COc1ccc(Cn2cc3c(c2-c2ccccc2)CC(C)(C)c2cnoc2-3)cc1`, the GI50 in assay [1] is 1.45 µM; in assay [2] it was 1.78 µM; in assay [4] it was 3.46 µM. The TGI is 7.91 µM in assay [1], 7.5 µM in assay [2] and greater than 100 µM in assay [4].

Turning to `CCCN1CCC(=O)N(CCC(F)(F)C(F)(F)C(F)(F)C(F)(F)C(F)(F)C(F)(F)F)C1=S`, the TGI in assay [1], in assay [2] and in assay [4] was greater than 100 µM throughout.

As for `Cc1cc(C(=O)Nc2ncc(Cc3cccc(C(F)(F)F)c3)s2)c2ccccc2n1`, the GI50 in assay [1] is 2.41 µM; in assay [2] it was 3.47 µM; in assay [3], 2.06 µM. Besides, the TGI in assay [1], in assay [2] and in assay [3] was greater than 100 µM each time.

On to `C[C@@]12CC=C3c4nc(Nc5cccc(O)c5)sc4CC[C@]3(C)[C@H]1CC[C@]1(C)C(=O)CC[C@@H]21`, for which the GI50 was 2.43 µM in assay [1], 3.1 µM in assay [3] and 3 µM in assay [4]. Further, the TGI in assay [1] was greater than 100 µM; in assay [3] it was greater than 100 µM; in assay [4], 15 µM.

For the molecule `CC(C)(C)c1cc(C(C)(C)C)cc(S(=O)(=O)Nc2cc3ccccc3cc2C(=O)NCCN)c1`, the GI50 in assay [1] was 2.17 µM; in assay [2] it was 1.82 µM; in assay [3] it was 2.37 µM. Further, the TGI was 4.89 µM in assay [1], 3.47 µM in assay [2] and 6.54 µM in assay [3].
